Test results: ChEMBL document CHEMBL1201862, “PubChem BioAssay data set” (2004)
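96-well plates; 48 h exposure; 5 concentrations. Endpoints by linear interpolation between flanking doses. Not reached: highest tested concentration assigned. At the GI50, growth is halved.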 The source made the active and inactive calls. Rule as the data show it: active = GI50 up to about 1.1 µM and inactive = higher.

Columns and labels:
Assay in all cases: NCI-60 cell line screen, 48 h
[1] = tested on: MOLT-4
[2] = tested on: RPMI-8226
[3] = tested on: SW-620
[4] = tested on: SF-295
[5] = tested on: T47D
[6] = tested on: SR
[7] = tested on: HCT-15
[8] = tested on: Hs-578T
[9] = tested on: SF-539
[10] = tested on: RXF 393
[11] = tested on: SF-268
[12] = tested on: HL-60
[13] = tested on: Malme-3M
[14] = tested on: HT-29
[15] = tested on: PC-3
[16] = tested on: K562
[17] = tested on: MDA-MB-435
[18] = tested on: UACC-62
[19] = tested on: A498

Structure (SMILES)	GI50 [1]	GI50 [2]	GI50 [3]	GI50 [4]	GI50 [5]	GI50 [6]	GI50 [7] [µM]	GI50 [8]	GI50 [9]	GI50 [10]	GI50 [11]	GI50 [12]	GI50 [13]	GI50 [14]	GI50 [15]	GI50 [16]	GI50 [17]	GI50 [18]	GI50 [19]
O=C(O)c1ccccc1/C=N\N(CCO)C1=NCCN1	> 100 µM (inactive)	> 100 µM (inactive)	> 100 µM (inactive)	> 100 µM (inactive)	> 100 µM (inactive)	> 100 µM (inactive)	> 100	> 100 µM (inactive)	> 100 µM (inactive)	> 100 µM (inactive)	> 100 µM (inactive)	> 100 µM (inactive)	> 100 µM (inactive)	> 100 µM (inactive)	> 100 µM (inactive)	> 100 µM (inactive)	> 100 µM (inactive)	> 100 µM (inactive)	
OC(Cc1ccc2ccccc2n1)(C(F)(F)F)C(F)(F)F	> 10 µM (inactive)	> 10 µM (inactive)	> 10 µM (inactive)	> 10 µM (inactive)	> 10 µM (inactive)	> 10 µM (inactive)	> 10	> 10 µM (inactive)	> 10 µM (inactive)		> 10 µM (inactive)		> 10 µM (inactive)	> 10 µM (inactive)	> 10 µM (inactive)	> 10 µM (inactive)	> 10 µM (inactive)	> 10 µM (inactive)	> 10 µM (inactive)
Cc1ccccc1C(=O)C#Cc1cn(C2CC(O)C(CO)O2)c(=O)[nH]c1=O (stereo not given)	16.1 µM (inactive)	> 100 µM (inactive)	> 100 µM (inactive)	> 100 µM (inactive)	68.2 µM (inactive)	27.9 µM (inactive)	> 100	> 100 µM (inactive)	> 100 µM (inactive)	> 100 µM (inactive)	> 100 µM (inactive)	> 100 µM (inactive)	18.3 µM (inactive)	> 100 µM (inactive)	> 100 µM (inactive)	57 µM (inactive)	> 100 µM (inactive)	> 100 µM (inactive)	
Cc1cc2c(c(C(=O)NCC(=O)N[C@@H](C)C(=O)OCc3ccccc3)c1)Oc1c(cc(C)cc1C(=O)NCC(=O)N[C@@H](C)C(=O)OCc1ccccc1)S2	78 µM (inactive)	43.3 µM (inactive)	> 100 µM (inactive)	> 100 µM (inactive)	2.41 µM (inactive)	17.8 µM (inactive)	> 100	26.2 µM (inactive)		20.1 µM (inactive)	37.2 µM (inactive)		16.1 µM (inactive)	> 100 µM (inactive)	> 100 µM (inactive)	23 µM (inactive)	> 100 µM (inactive)	30.8 µM (inactive)	> 100 µM (inactive)
C=CCC1NCCC2=C1C(S(=O)(=O)c1ccc(C)cc1)c1ccccc12 (stereo not given)	6.56 µM (inactive)	5.55 µM (inactive)	14.2 µM (inactive)	13.7 µM (inactive)	10.4 µM (inactive)	3.64 µM (inactive)	11.9	13.7 µM (inactive)		5.66 µM (inactive)	14.9 µM (inactive)		11.2 µM (inactive)	16 µM (inactive)	10.4 µM (inactive)	5.62 µM (inactive)	5.47 µM (inactive)	11.7 µM (inactive)	19 µM (inactive)
O=C1CSC(c2ccc([N+](=O)[O-])cc2)N1c1ccc(-n2c(-c3ccccc3)nc3ccccc3c2=O)cc1 (stereo not given)	29.5 µM (inactive)	> 100 µM (inactive)	> 100 µM (inactive)	> 100 µM (inactive)	22.5 µM (inactive)	14.6 µM (inactive)	41.3	> 100 µM (inactive)	42.9 µM (inactive)		38.5 µM (inactive)	> 100 µM (inactive)	> 100 µM (inactive)	> 100 µM (inactive)	> 100 µM (inactive)	86.9 µM (inactive)	> 100 µM (inactive)	7.98 µM (inactive)	> 100 µM (inactive)
[N-]=[N+]=Nc1ccccc1-c1ccccc1[N+](=O)[O-]	22.1 µM (inactive)	26 µM (inactive)	48.5 µM (inactive)	73.3 µM (inactive)	38.4 µM (inactive)	28.1 µM (inactive)	42.6	30.5 µM (inactive)		86.1 µM (inactive)	36.1 µM (inactive)		26.4 µM (inactive)	44.3 µM (inactive)	37.8 µM (inactive)	31.3 µM (inactive)	32.3 µM (inactive)	74.3 µM (inactive)	45 µM (inactive)
CCOC(=O)CSc1nc(-c2ccc(OC)cc2)c(C#N)c(=O)[nH]1	> 100 µM (inactive)	> 100 µM (inactive)	> 100 µM (inactive)	> 100 µM (inactive)	> 100 µM (inactive)	84.9 µM (inactive)	> 100	> 100 µM (inactive)	> 100 µM (inactive)	> 100 µM (inactive)	> 100 µM (inactive)	0.0495 µM (active)		> 100 µM (inactive)	> 100 µM (inactive)	> 100 µM (inactive)	> 100 µM (inactive)	> 100 µM (inactive)	> 100 µM (inactive)
C[C@H](NC(=O)CNC(=O)CCCCCC(=O)NCC(=O)N[C@@H](C)C(=O)OCc1ccccc1)C(=O)OCc1ccccc1	> 100 µM (inactive)	> 100 µM (inactive)	> 100 µM (inactive)	> 100 µM (inactive)	> 100 µM (inactive)	> 100 µM (inactive)	> 100	> 100 µM (inactive)	> 100 µM (inactive)	> 100 µM (inactive)	> 100 µM (inactive)		> 100 µM (inactive)	> 100 µM (inactive)	> 100 µM (inactive)	> 100 µM (inactive)	> 100 µM (inactive)	> 100 µM (inactive)	
C[C@@H]1S[C@H](c2ccccc2F)N2Cc3ccccc3N=C12	18.2 µM (inactive)	20.6 µM (inactive)	36.4 µM (inactive)	26.2 µM (inactive)	24.1 µM (inactive)	15.9 µM (inactive)	28.5	27.7 µM (inactive)	37.9 µM (inactive)	27.4 µM (inactive)	28.6 µM (inactive)	19.3 µM (inactive)	19.9 µM (inactive)	19.5 µM (inactive)	22.9 µM (inactive)	22.9 µM (inactive)	23.5 µM (inactive)	19.1 µM (inactive)	
COC1CC(OC2C(C)OC(OC3C(C)OC(OC4C(O)CC(O[C@H]5CC[C@@]6(C)C(=CC[C@]7(O)[C@@H]6C[C@@H](OC(C)=O)[C@@]6(C)[C@]7(O)CC[C@@]6(O)C(C)=O)C5)OC4C)CC3OC)CC2OC)OC(C)C1O (stereo not given in full)	> 12.5 µM (inactive)	> 12.5 µM (inactive)	> 12.5 µM (inactive)	> 12.5 µM (inactive)	> 12.5 µM (inactive)	> 12.5 µM (inactive)	> 12.5	> 12.5 µM (inactive)	> 12.5 µM (inactive)		> 12.5 µM (inactive)	> 12.5 µM (inactive)	8.26 µM (inactive)	> 12.5 µM (inactive)	> 12.5 µM (inactive)	> 12.5 µM (inactive)	> 12.5 µM (inactive)	> 12.5 µM (inactive)	
Cc1cc(C)nc(NC(=S)Nc2ccc([N+](=O)[O-])cc2)c1	> 100 µM (inactive)	> 100 µM (inactive)	> 100 µM (inactive)		> 100 µM (inactive)	> 100 µM (inactive)	> 100	> 100 µM (inactive)	> 100 µM (inactive)	> 100 µM (inactive)	> 100 µM (inactive)	> 100 µM (inactive)		> 100 µM (inactive)	> 100 µM (inactive)	45.2 µM (inactive)	> 100 µM (inactive)	> 100 µM (inactive)	> 100 µM (inactive)
Oc1ccc2ccccc2c1/N=N/c1ccc(/N=N/c2ccccc2)cc1	> 100 µM (inactive)	> 100 µM (inactive)	> 100 µM (inactive)	> 100 µM (inactive)	> 100 µM (inactive)	23.6 µM (inactive)	> 100	> 100 µM (inactive)		> 100 µM (inactive)	> 100 µM (inactive)	0.43 µM (active)	> 100 µM (inactive)	> 100 µM (inactive)	> 100 µM (inactive)	> 100 µM (inactive)	64.1 µM (inactive)	75.7 µM (inactive)	> 100 µM (inactive)
Cc1ccc(S(=O)(=O)C2=C(C(C)C)N=NC2(C)C)cc1	18.7 µM (inactive)	9.14 µM (inactive)	> 100 µM (inactive)	71.8 µM (inactive)	60.1 µM (inactive)	29.3 µM (inactive)	73.6	57.5 µM (inactive)	> 100 µM (inactive)	66.5 µM (inactive)	> 100 µM (inactive)	> 100 µM (inactive)		> 100 µM (inactive)	> 100 µM (inactive)	28.6 µM (inactive)	47.6 µM (inactive)		> 100 µM (inactive)
Clc1cccc(-c2sc(-c3cccs3)cc2Cc2cccs2)c1	> 10 µM (inactive)	> 10 µM (inactive)	> 10 µM (inactive)	> 10 µM (inactive)	0.74 µM (active)	> 10 µM (inactive)	2.79	> 10 µM (inactive)	> 10 µM (inactive)	> 10 µM (inactive)	> 10 µM (inactive)	> 10 µM (inactive)	> 10 µM (inactive)	> 10 µM (inactive)	> 10 µM (inactive)	> 10 µM (inactive)	> 10 µM (inactive)	> 10 µM (inactive)	
C(=NCCN1CCOCC1)=NC1CCCCC1	> 100 µM (inactive)	> 100 µM (inactive)	> 100 µM (inactive)	> 100 µM (inactive)	> 100 µM (inactive)	12.4 µM (inactive)	> 100	> 100 µM (inactive)	> 100 µM (inactive)	> 100 µM (inactive)	> 100 µM (inactive)		> 100 µM (inactive)	> 100 µM (inactive)	> 100 µM (inactive)	> 100 µM (inactive)	> 100 µM (inactive)	> 100 µM (inactive)	> 100 µM (inactive)
